# Data: patent US9637485B2, “6,7-dihydrobenzo[a]quinolizin-2-one derivatives for the treatment and prophylaxis of hepatitis B virus infection” (Hoffmann-La Roche Inc., priority 2014, dated 2017)
# System: HBsAg
# Assay: HBsAg assay (CLIA of secreted HBsAg in HepG2.2.15 culture supernatant)
# Format: cell-based, HBV
# Settings: Hepatitis B virus, HepG2.2.15, read-out: IC50 (HBsAg secretion reduced by 50% compared to the no drug control), HepG2.2.15 cells, culture supernatant, HBsAg CLIA
# Method: (§1) HepG2.2.15 cells (Acs et al. Proc Natl Acad Sci USA, 84, (1987), 4641-4), a constitutively HBV-expressing cell line were cultured in DMEM+Glutamax-I medium (Invitrogen, Carlsbad, Calif., USA, Catalog number: 11320082), supplemented with 10% fetal bovine serum (Invitrogen, Catalog number: 10099141) and G418 (Invitrogen, Catalog number: 10131027) at a final concentration of 200 mg/L and maintained in 5% CO2 at 37° C.
# HepG2.2.15 cells were seeded in duplicate into white, 96-well plates at 1.5×10^4 cells/well. The cells were treated with a three-fold serial dilution series of the compounds in DMSO. The final DMSO concentration in all wells was 1% and DMSO was used as no drug control.
# The HBsAg chemiluminescence immunoassay (CLIA) kit (Autobio Diagnostics Co., Zhengzhou, China, Catalog number: CL0310-2) was used to measure the levels of secreted HBV antigens semi-quantitatively. For the detection 50 μL/well culture supernatant was used and HBsAg was quantified using HBsAg chemiluminescence immunoassay (CLIA) kit (Autobio Diagnostics Co., Zhengzhou, China, Catalog number: CL0310-2), 50 μl of the supernatant was transferred to the CLIA assay plate and 50 μL of enzyme conjugate reagent was added into each well. The plates were sealed and gently agitated for 1 hour at room temperature. The supernatant-enzyme-mixture was discarded and wells were washed 6 times with 300 μL of PBS. The residual liquid was removed by plating the CLIA plate right side down on absorbent tissue paper. 25 μL of substrates A and B were added to each well. Luminance was measured using a luminometer (Mithras LB 940 Multimode Microplate Reader) after 10 minutes incubation. Dose-response curves were generated and the IC50 value was extrapolated by using the E-WorkBook Suite (ID Business Solutions Ltd., Guildford, UK). The IC50 was defined as the compound concentration (or conditioned media log dilution) at which HBsAg secretion was reduced by 50% compared to the no drug control.
row,SMILES,IC50 [nM]
1,"COCCCOc1cc2c(cc1OC)-c1cc(=O)c(C(=O)O)cn1C(COC)C2 (stereo not shown) [Example 18, 10-Methoxy-6-(methoxymethyl)-9-(3-methoxypropoxy)-2-oxo-6,7-dihydrobenzo[a]quinolizine-3-carboxylic acid]",75
2,"COCCCOc1cc2c(cc1Cl)-c1cc(=O)c(C(=O)O)cn1C(C1CCOCC1)C2 (stereo not shown) [Example 19, 10-Chloro-9-(3-methoxypropoxy)-2-oxo-6-tetrahydropyran-4-yl-6,7-dihydrobenzo[a]quinolizine-3-carboxylic acid]",88
3,"COCCCOc1cc2c(cc1OC)-c1cc(=O)c(C(=O)O)cn1C(C(C)(C)COCc1ccccc1)C2 (stereo not shown) [Example 23, 6-(2-Benzyloxy-1,1-dimethyl-ethyl)-10-methoxy-9-(3-methoxypropoxy)-2-oxo-6,7-dihydrobenzo[a]quinolizine-3-carboxylic acid]",18
4,"COCCOc1cc2c(cc1Cl)-c1cc(=O)c(C(=O)O)cn1C(CSC)C2 (stereo not shown) [Example 33, 10-Chloro-9-(2-methoxyethoxy)-6-(methylsulfanylmethyl)-2-oxo-6,7-dihydrobenzo[a]quinolizine-3-carboxylic acid]",117
5,"COCCOc1cc2c(cc1Cl)-c1cc(=O)c(C(=O)O)cn1C(CS(C)(=O)=O)C2 (stereo not shown) [Example 34, 10-Chloro-9-(2-methoxyethoxy)-6-(methylsulfonylmethyl)-2-oxo-6,7-dihydrobenzo[a]quinolizine-3-carboxylic acid]",3380
6,"CCOc1cc2c(cc1OCC)-c1cc(=O)c(C(=O)O)cn1C(CO)C2 (stereo not shown) [Example 35, 9,10-Diethoxy-6-(hydroxymethyl)-2-oxo-6,7-dihydrobenzo[a]quinolizine-3-carboxylic acid]",868
7,"CCOc1cc2c(cc1OCC)-c1cc(=O)c(C(=O)O)cn1C(COC(C)=O)C2 (stereo not shown) [Example 36, 6-(Acetoxymethyl)-9,10-diethoxy-2-oxo-6,7-dihydrobenzo[a]quinolizine-3-carboxylic acid]",254
8,"CCOc1cc2c(cc1OCC)-c1cc(=O)c(C(=O)O)cn1C(CN)C2 (stereo not shown) [Example 37, 6-(Aminomethyl)-9,10-diethoxy-2-oxo-6,7-dihydrobenzo[a]quinolizine-3-carboxylic acid]",1540
9,"CCOc1cc2c(cc1OCC)-c1cc(=O)c(C(=O)O)cn1C(CNS(C)(=O)=O)C2 (stereo not shown) [Example 38, 9,10-Diethoxy-6-(methanesulfonamidomethyl)-2-oxo-6,7-dihydrobenzo[a]quinolizine-3-carboxylic acid]",33300
10,"CCOc1cc2c(cc1OCC)-c1cc(=O)c(C(=O)O)cn1C(CNC(=O)c1ccccc1)C2 (stereo not shown) [Example 39, 6-(Benzamidomethyl)-9,10-diethoxy-2-oxo-6,7-dihydrobenzo[a]quinolizine-3-carboxylic acid]",19800
11,"CCOc1cc2c(cc1OCC)-c1cc(=O)c(C(=O)O)cn1C(CN1CCCC1=O)C2 (stereo not shown) [Example 40, 9,10-Diethoxy-2-oxo-6-[(2-oxopyrrolidin-1-yl)methyl]-6,7-dihydrobenzo[a]quinolizine-3-carboxylic acid]",7450
12,"CCOc1cc2c(cc1OCC)-c1cc(=O)c(C(=O)O)cn1C(CN(C)C(C)=O)C2 (stereo not shown) [Example 41, 6-[[Acetyl(methyl)amino]methyl]-9,10-diethoxy-2-oxo-6,7-dihydrobenzo[a]quinolizine-3-carboxylic acid]",4860
13,"CCOc1cc2c(cc1OCC)-c1cc(=O)c(C(=O)O)cn1C(CN1CCCC1)C2 (stereo not shown) [Example 42, 9,10-Diethoxy-2-oxo-6-(pyrrolidin-1-ylmethyl)-6,7-dihydrobenzo[a]quinolizine-3-carboxylic acid]",216
14,"CCOc1cc2c(cc1OCC)-c1cc(=O)c(C(=O)O)cn1C(CN(C)C)C2 (stereo not shown) [Example 43, 6-[(Dimethylamino)methyl]-9,10-diethoxy-2-oxo-6,7-dihydrobenzo[a]quinolizine-3-carboxylic acid]",134
15,"COCC(C)(C)C1Cc2cc(OCCCn3cccn3)c(OC)cc2-c2cc(=O)c(C(=O)O)cn21 (stereo not shown) [Example 44, 10-Methoxy-6-(2-methoxy-1,1-dimethyl-ethyl)-2-oxo-9-(3-pyrazol-1-ylpropoxy)-6,7-dihydrobenzo[a]quinolizine-3-carboxylic acid]",190
16,"CCc1cc2c(cc1OC)-c1cc(=O)c(C(=O)O)cn1C(C(C)(C)COC)C2 (stereo not shown) [Example 45, 9-Ethyl-10-methoxy-6-(2-methoxy-1,1-dimethyl-ethyl)-2-oxo-6,7-dihydrobenzo[a]quinolizine-3-carboxylic acid]",74
17,"COCC(C)(C)C1Cc2cc(N3CCCC3)c(OC)cc2-c2cc(=O)c(C(=O)O)cn21 (stereo not shown) [Example 46, 10-Methoxy-6-(2-methoxy-1,1-dimethyl-ethyl)-2-oxo-9-pyrrolidin-1-yl-6,7-dihydrobenzo[a]quinolizine-3-carboxylic acid]",9
18,"COCC(C)(C)C1Cc2cc(C#N)c(OC)cc2-c2cc(=O)c(C(=O)O)cn21 (stereo not shown) [Example 47, 9-Cyano-10-methoxy-6-(2-methoxy-1,1-dimethyl-ethyl)-2-oxo-6,7-dihydrobenzo[a]quinolizine-3-carboxylic acid]",230

# Same assay, conditions: read-out: IC50 (HBsAg secretion reduced by 50% compared to the no drug control); HepG2.2.15 cells, culture supernatant, HBsAg CLIA
row,SMILES,IC50 [nM]
1,"COCCCOc1cc2c(cc1OC)-c1cc(=O)c(C(=O)O)cn1[C@H](C(C)(C)CO)C2 (single isomer, unassigned) [Example 25, (+)-6-(2-Hydroxy-1,1-dimethyl-ethyl)-10-methoxy-9-(3-methoxypropoxy)-2-oxo-6,7-dihydrobenzo[a]quinolizine-3-carboxylic acid]",2
2,"COCCCOc1cc2c(cc1OC)-c1cc(=O)c(C(=O)O)cn1C(C(C)(C)COC)C2 (single isomer, unassigned) [Example 28, (+)-10-Methoxy-6-(2-methoxy-1,1-dimethyl-ethyl)-9-(3-methoxypropoxy)-2-oxo-6,7-dihydrobenzo[a]quinolizine-3-carboxylic acid]",3

# System: HBV DNA
# Assay: HBV DNA assay (real-time qPCR/TaqMan of extracellular HBV DNA, HepG2.2.15 cells)
# Format: cell-based
# Settings: Hepatitis B virus, 144 h, supernatant six days after initial administration, qPCR, read-out: IC50 (Anti HBV DNA production activity)
# Method: as §1
# The assay employs real-time qPCR (TaqMan) to directly measure extracellular HBV DNA copy number. HepG2.2.15 cells were plated in 96-well microtiter plates. Only the interior wells were utilized to reduce “edge effects” observed during cell culture, the exterior wells were filled with complete medium to help minimize sample evaporation. On the following day, the HepG2.2.15 cells were washed and the medium was replaced with complete medium containing various concentrations of a test compound in triplicate. 3TC was used as the positive control, while media alone was added to cells as a negative control (virus control, VC). Three days later, the culture medium was replaced with fresh medium containing the appropriately diluted drug. […] Antiviral activity was calculated from the reduction in HBV DNA levels (IC50).
row,SMILES,IC50 [nM]
1,"COCCCOc1cc2c(cc1OC)-c1cc(=O)c(C(=O)O)cn1[C@H](C(C)(C)CO)C2 (single isomer, unassigned) [Example 25, (+)-6-(2-Hydroxy-1,1-dimethyl-ethyl)-10-methoxy-9-(3-methoxypropoxy)-2-oxo-6,7-dihydrobenzo[a]quinolizine-3-carboxylic acid]",< 32
2,"COCCCOc1cc2c(cc1OC)-c1cc(=O)c(C(=O)O)cn1C(C(C)(C)COC)C2 (single isomer, unassigned) [Example 28, (+)-10-Methoxy-6-(2-methoxy-1,1-dimethyl-ethyl)-9-(3-methoxypropoxy)-2-oxo-6,7-dihydrobenzo[a]quinolizine-3-carboxylic acid]",0.5
